According to patent US20120316187A1, “MOLECULAR BIOMARKERS FOR PREDICTING RESPONSE TO TYROSINE KINASE INHIBITORS IN LUNG CANCER” (PANGAEA BIOTECH, S.L., priority 2009, published 2012):
Like-named read-outs stand apart in the source and are kept apart here.

Key:
T790M resistance mutants = details: in vitro; cited from earlier work
[1] = system: non-small-cell lung cancer patients with EGFR mutations; details: for TTP (months): first line treatment with erlotinib
From the text: The term “clinical response”, as used herein, refers to the response of the subject suffering from NSCLC to a therapy with a tyrosine kinase inhibitor. Standard criteria (Miller, et al. Cancer, 1981; 47:207-14) that can be used herewith to evaluate the response to chemotherapy include response, stabilization and progression. It can be a complete response (or complete remission) which is the disappearance of all detectable malignant disease or a partial response which is defined as approximately >50% decrease in the sum of products of the largest perpendicular diameters of one or more lesions (tumor lesions), no new lesions and no progression of any lesion. Patients achieving complete or partial response were considered “responders”, and all other patients were considered “non-responders”.
The presence of the T790M mutation was examined in 129 patients for whom pretreatment tumor tissue was available.

[2] = 81 patients, BRCA1 4.92-10.7 N = 27
[3] = 81 patients, BRCA1 >10.7 N = 27
[4] = 81 patients, BRCA1 ≦4.92 N = 27
[5] = 129 patients, patients with the T790M mutation
[6] = 129 patients, patients without the T790M mutation
[7] = patients with the T790M mutation, BRCA1 4.92-11.79
[8] = patients with the T790M mutation, BRCA1 >11.79
[9] = patients with the T790M mutation, BRCA1 ≦4.92
[10] = patients without the T790M mutation, BRCA1 4.92-11.79
[11] = patients without the T790M mutation, BRCA1 >11.79
[12] = patients without the T790M mutation, BRCA1 ≦4.92

CC#CC(=O)Nc1ccc2ncnc(Nc3cccc(Br)c3)c2c1 [CL-387,785]
inhibition of growth of the T790M resistance mutants (T790M resistance mutants): inhibit the growth of the T790M resistance mutants

C#Cc1cccc(Nc2ncnc3cc(OCCOC)c(OCCOC)cc23)c1 [erlotinib, [6,7-bis(2-methoxyethoxy)-4-quinazolin-4-yl]-(3-ethynylphenyl)amine]
median progression-free survival ([1]; 28 patients harboring the T790M mutation, high BRCA1 levels): 8 months
median progression-free survival ([1]; 28 patients harboring the T790M mutation, intermediate BRCA1 levels): 4 months
median progression-free survival ([1]; 28 patients harboring the T790M mutation, low BRCA1 levels): 19 months
progression-free survival ([1]; 34 patients receiving erlotinib as first-line treatment (so in the source), high BRCA1 levels): 9 months
progression-free survival ([1]; 34 patients receiving erlotinib as first-line treatment (so in the source), intermediate BRCA1 levels): 24 months
progression-free survival ([1]; 34 patients receiving erlotinib as first-line treatment (so in the source), low BRCA1 levels): not reached
progression-free survival ([1]; 47 patients receiving erlotinib as first-line treatment, high BRCA1 levels): 16 months
progression-free survival ([1]; 47 patients receiving erlotinib as first-line treatment, intermediate BRCA1 levels): 9 months
progression-free survival ([1]; 47 patients receiving erlotinib as first-line treatment, low BRCA1 levels): 27 months
median progression-free survival ([1]; 53 patients without the T790M mutation, high BRCA1 levels): 12 months
median progression-free survival ([1]; 53 patients without the T790M mutation, intermediate BRCA1 levels): not reached
median progression-free survival ([1]; 53 patients without the T790M mutation, low BRCA1 levels): 27 months
progression-free survival ([1]; 64 patients receiving erlotinib as second-line treatment, with the T790M mutation): 13 months
progression-free survival ([1]; 64 patients receiving erlotinib as second-line treatment, without the T790M mutation): 18 months
progression-free survival ([1]; 65 patients receiving erlotinib as first-line treatment, with the T790M mutation): 8 months
progression-free survival ([1]; 65 patients receiving erlotinib as first-line treatment, without the T790M mutation): 18 months
Complete or partial response, (%) [1, 2]: (72) %
Complete response, (%) [1, 2]: (16) %
Partial response, (%) [1, 2]: (56) %
Progressive disease, (%) [1, 2]: (12) %
Stable disease, (%) [1, 2]: (16) %
Complete or partial response, (%) [1, 3]: (68.2) %
Complete response, (%) [1, 3]: (9.1) %
Partial response, (%) [1, 3]: (59.1) %
Progressive disease, (%) [1, 3]: (9.1) %
Stable disease, (%) [1, 3]: (22.7) %
Complete or partial response, (%) [1, 4]: (76) %
Complete response, (%) [1, 4]: (20) %
Partial response, (%) [1, 4]: (56) %
Progressive disease, (%) [1, 4]: (8) %
Stable disease, (%) [1, 4]: (16) %
Median progression-free survival to erlotinib ([1]; 81 patients, high BRCA1 levels): 10 months
Median progression-free survival to erlotinib ([1]; 81 patients, intermediate BRCA1 levels): 18 months
Overall survival ([1]; 81 patients, intermediate or high BRCA1 levels): not reached
Median progression-free survival to erlotinib ([1]; 81 patients, low BRCA1 levels): 27 months
Overall survival ([1]; 81 patients, low BRCA1 levels): 33 months
Overall survival [1, 5]: 27 months
median progression-free survival [1, 5]: 12 months
Overall survival [1, 6]: 29 months
median progression-free survival [1, 6]: 18 months
Complete or partial response, (%) ([1]; All patients N = 129): (68.9) %
Complete response, (%) ([1]; All patients N = 129): (10.3) %
Partial response, (%) ([1]; All patients N = 129): (58.6) %
Progressive disease, (%) ([1]; All patients N = 129): (12.9) %
Stable disease, (%) ([1]; All patients N = 129): (18.1) %
Complete or partial response, (%) ([1]; T790M-negative N = 84): (72.3) %
Complete response, (%) ([1]; T790M-negative N = 84): (13.9) %
Partial response, (%) ([1]; T790M-negative N = 84): (58.3) %
Progressive disease, (%) ([1]; T790M-negative N = 84): (11.1) %
Stable disease, (%) ([1]; T790M-negative N = 84): (16.7) %
Complete or partial response, (%) ([1]; T790M-positive N = 45): (63.6) %
Complete response, (%) ([1]; T790M-positive N = 45): (4.5) %
Partial response, (%) ([1]; T790M-positive N = 45): (59.1) %
Progressive disease, (%) ([1]; T790M-positive N = 45): (15.9) %
Stable disease, (%) ([1]; T790M-positive N = 45): (20.5) %
TTP (months) ([1]; T790M mutation No, BRCA1 levels High/Intermediate): 18 months
TTP (months) ([1]; T790M mutation No, BRCA1 levels Low): 27 months
TTP (months) ([1]; T790M mutation Yes, BRCA1 levels High/Intermediate): 3 months
TTP (months) ([1]; T790M mutation Yes, BRCA1 levels Low): 27 months
Complete or partial response, number of patients [1, 7]: 5
Complete or partial response, share in parentheses [1, 7]: (55.6)
Complete response, number of patients [1, 7]: 0
Complete response, share in parentheses [1, 7]: (0)
Partial response, number of patients [1, 7]: 5
Partial response, share in parentheses [1, 7]: (55.6)
Progressive disease, number of patients [1, 7]: 2
Progressive disease, share in parentheses [1, 7]: (22.2)
Stable disease, number of patients [1, 7]: 2
Stable disease, share in parentheses [1, 7]: (22.2)
Complete or partial response, number of patients [1, 8]: 7
Complete or partial response, share in parentheses [1, 8]: (77.8)
Complete response, number of patients [1, 8]: 1
Complete response, share in parentheses [1, 8]: (11.1)
Partial response, number of patients [1, 8]: 6
Partial response, share in parentheses [1, 8]: (66.7)
Progressive disease, number of patients [1, 8]: 1
Progressive disease, share in parentheses [1, 8]: (11.1)
Stable disease, number of patients [1, 8]: 1
Stable disease, share in parentheses [1, 8]: (11.1)
Complete or partial response, number of patients [1, 9]: 7
Complete or partial response, share in parentheses [1, 9]: (70)
Complete response, number of patients [1, 9]: 1
Complete response, share in parentheses [1, 9]: (10)
Partial response, number of patients [1, 9]: 6
Partial response, share in parentheses [1, 9]: (60)
Progressive disease, number of patients [1, 9]: 1
Progressive disease, share in parentheses [1, 9]: (10)
Stable disease, number of patients [1, 9]: 2
Stable disease, share in parentheses [1, 9]: (20)
Complete or partial response, number of patients [1, 10]: 13
Complete or partial response, share in parentheses [1, 10]: (76.5)
Complete response, number of patients [1, 10]: 4
Complete response, share in parentheses [1, 10]: (23.5)
Partial response, number of patients [1, 10]: 9
Partial response, share in parentheses [1, 10]: (52.9)
Progressive disease, number of patients [1, 10]: 1
Progressive disease, share in parentheses [1, 10]: (5.9)
Stable disease, share in parentheses [1, 10]: (17.6)
Complete or partial response, number of patients [1, 11]: 7
Complete or partial response, share in parentheses [1, 11]: (63.6)
Complete response, number of patients [1, 11]: 1
Complete response, share in parentheses [1, 11]: (9.1)
Partial response, number of patients [1, 11]: 6
Partial response, share in parentheses [1, 11]: (54.5)
Progressive disease, number of patients [1, 11]: 1
Progressive disease, share in parentheses [1, 11]: (9.1)
Stable disease, share in parentheses [1, 11]: (27.3)
Complete or partial response, number of patients [1, 12]: 13
Complete or partial response, share in parentheses [1, 12]: (81.3)
Complete response, number of patients [1, 12]: 4
Complete response, share in parentheses [1, 12]: (25)
Partial response, number of patients [1, 12]: 9
Partial response, share in parentheses [1, 12]: (56.3)
Progressive disease, number of patients [1, 12]: 1
Progressive disease, share in parentheses [1, 12]: (6.3)
Stable disease, number of patients [1, 12]: 2
Stable disease, share in parentheses [1, 12]: (12.5)
progression-free survival ([1]; subgroup of 48 patients with L858R, with the T790M mutation): 16 months
progression-free survival ([1]; subgroup of 48 patients with L858R, without the T790M mutation): 15 months
progression-free survival ([1]; subgroup of 81 patients with del 19, with the T790M mutation): 12 months
progression-free survival ([1]; subgroup of 81 patients with del 19, without the T790M mutation): 20 months
